Data reported in patent publication US9546355B2, “Conditional replicating cytomegalovirus as a vaccine for CMV” (Merck Sharp & Dohme Corp., priority 2011, dated 2017).

Key:
ARPE-19 cells = assay: Shield-1 concentration dependent progeny virus production (TCID50 assay); assay type: cell-based; details: rdCMV in ARPE-19 cells and other human primary cells
Experimental: ARPE-19 cells were infected with the rdCMV viruses at a multiplicity of 0.01 PFU/cell for 1 h, washed twice with fresh medium, and incubated in the growth medium containing 0, 0.05, 0.1 0.5 or 2 μM of Shield-1. Seven days post infection, the cell free virus was collected, and virus titers were determined by TCID50 assay on ARPE-19 cells in the presence of 2 μM of Shield 1.
Varying concentrations of Shld-1 were used in additional experiments to further assess viral replication in the presence or absence of Shld-1. ARPE-19 cells were infected by the gH expressing CMV that also contained a FKBP derivative fused to an essential protein at MOI of […]. After infection for 1 hour, the cells were washed twice with fresh medium to remove the Shld-1 from the inoculums. The inoculums were then added to ARPE-19 cells cultured in medium containing 0.05, 0.1, 0.5 or 2 μM of Shield-1. Seven days post infection, the cell-free progeny virus in the supernatant was collected and titrated on ARPE-19 cells supplemented with […] of Shield-1. Virus titers were determined by a 50% Tissue Culture Infective Dose (TCID50) assay. Briefly, this dilution assay quantifies the amount of virus required to kill 50% of infected hosts. […] After incubation, the percentage of cell death (i.e. infected cells) was manually observed and recorded for each virus dilution. […]

FKBP = details: tighter binding; Clackson et al., 1998; cited from earlier work

SMILES: CC[C@H](C(=O)N1CCCC[C@H]1C(=O)O[C@H](CCc1ccc(OC)c(OC)c1)c1cccc(OCCN2CCOCC2)c1)c1cc(OC)c(OC)c(OC)c1 [Shield-1]
- Molar concentration of Shield-1 in the culture medium required to sustain viral replication (ARPE-19 cells): greater than 0.1 μM
- Binding to the F36V derivative compared to wild-type FKBP (FKBP): about 1,000 fold
